pIC50: −log10 of the molar value.
Molecular target: POLRMT (Homo sapiens (Human), UniProt O00411)
Assay: homogeneous TR-FRET assay of POLRMT inhibition (mitochondrial transcription, 407 bp RNA product)
Type: biochemical
Conditions: 7.5 nM POLRMT, 15 nM TFB2M, 30 nM TFAM, 0.5 nM DNA template, 500 μM NTPs, 37° C., 60 minutes, * = aggregation of data sets, read-out: IC50 values for isoquinolinone compounds
Experimental: The inhibitory activity of the compounds of the present invention against POLRMT were determined by assays based on Bergbrede, T., et al., “An adaptable high-throughput technology enabling the identification of specific transcription modulators,” SLAC Discov., 22, 378-386 (2017).
The ability of some compounds of the present invention to inhibit POLRMT were determined in a homogeneous TR-FRET Assay using high-throughput screening in a 384-well plate format. This method is used to monitor the activity of mitochondrial transcription through measurement of its product, a 407 bp long RNA transcript. Detection of the product is facilitated by hybridization of two DNA-oligonucleotide probes to specific and adjacent sequences within the RNA product sequence. Upon annealing of the probes, two fluorophores are coupled directly to an acceptor nucleotide probe (ATTO647, 5′), or introduced via a coupled streptavidin with a biotinylated donor nucleotide probe (Europium cryptate) that is brought into sufficient proximity to serve as a fluorescence-donor-acceptor pair. Thus, a FRET signal at 665 nm is generated upon excitation at 340 nm.
Proteins used as transcription factors (POLRMT: NP_005026.3, TFAM: NP_003192.1, TFB2M: NP_071761.1) are diluted from their stocks to working concentrations of 1 μM, 20 μM and 4 μM respectively, in a dilution buffer containing 20 mM Tris-HCl (pH 8.0), 200 mM NaCl, 10% (v/v) glycerol, 1 mM Dithiothreitol (DTT), 0.5 mM EDTA.
DNA template is a pUC18 plasmid with the mitochondrial light strand promotor sequence (1-477) cloned between HindIII and BamHI sites. The DNA template is restriction linearized proximal to the promotor 3′-end (pUC-LSP).
The reaction mixture (10 uL) containing 7.5 nM POLRMT, 15 nM of TFB2M, 30 nM of TFAM, 0.5 nM of DNA template and 500 μM nucleotide triphosphate mix (NTPs) in a reaction buffer (containing 10 mM Tris-HCl (pH 7.5), 10 mM MgCl2, 40 mM NaCl, 10 mM DTT, 0.005% (w/v) Tween-20, 160 units/ml Rnase inhibitor and 0.1 mg/mL BSA) are dispensed to compounds in microplates, using a Thermo Multidrop® dispenser, and incubated at 37° C. in a VWR INCU-Line incubator for 60 minutes after mixing. No nucleotide triphosphate mix is added to negative control samples. Microplates with compounds to be tested in the assay are prepared from 10 mM compound stocks in 100% DMSO, equal amounts of DMSO without any compound are added to positive control and negative control samples.
During the incubation, a mix of the detection reagents is prepared in a buffer such that the enzymatic reaction is terminated due to chelating of Mg-ions and increased ionic strength, containing 50 mM Tris-HCl (pH 7.5), 700 mM NaCl, 20 mM EDTA, and 0.01% (w/v) Tween-20. Europium-streptavidin is pre-incubated with a 200-fold molar excess of a random sequence oligonucleotide to block unspecific binding of oligo, for two hours at ambient temperature in the dark. Afterwards, the blocked Europium-streptavidin is kept on ice until use.
At the end of the enzymatic reaction time, 5 μL detection oligo mix in the detection buffer is added, and assay plates are mixed and kept at ambient temperature for one hour, protected from light. The concentration of the Acceptor nucleotide oligo (e.g., ATTO647N-5′-[…]-3′ (SEQ ID NO: 1)) and Donor nucleotide oligo (e.g., bio-5′-AACACATCTCT(-bio)GCCAAACCCCA-bio-3′ (SEQ ID NO: 2)) in each assay well is 1 nM, and 3 nM, respectively.
After incubation with oligo mix, 5 μL of pre-blocked Europium-streptavidin reagent is dispensed to each assay well, assay plates are again mixed and kept at ambient temperature for one hour, protected from light.
The generated signal is measured with BMG Pherastar microtiter plate reader with a TRF light unit, using excitation at 340 nm, an integration time of 200 μs, and a delay time of 100 μs, before detection at 620 nm and 665 nm. The ratio of donor- and acceptor-fluorescence is used as a measure of the generated transcript product (i.e. enzymatic activity).

POLRMT, sequence (O00411 42-1230): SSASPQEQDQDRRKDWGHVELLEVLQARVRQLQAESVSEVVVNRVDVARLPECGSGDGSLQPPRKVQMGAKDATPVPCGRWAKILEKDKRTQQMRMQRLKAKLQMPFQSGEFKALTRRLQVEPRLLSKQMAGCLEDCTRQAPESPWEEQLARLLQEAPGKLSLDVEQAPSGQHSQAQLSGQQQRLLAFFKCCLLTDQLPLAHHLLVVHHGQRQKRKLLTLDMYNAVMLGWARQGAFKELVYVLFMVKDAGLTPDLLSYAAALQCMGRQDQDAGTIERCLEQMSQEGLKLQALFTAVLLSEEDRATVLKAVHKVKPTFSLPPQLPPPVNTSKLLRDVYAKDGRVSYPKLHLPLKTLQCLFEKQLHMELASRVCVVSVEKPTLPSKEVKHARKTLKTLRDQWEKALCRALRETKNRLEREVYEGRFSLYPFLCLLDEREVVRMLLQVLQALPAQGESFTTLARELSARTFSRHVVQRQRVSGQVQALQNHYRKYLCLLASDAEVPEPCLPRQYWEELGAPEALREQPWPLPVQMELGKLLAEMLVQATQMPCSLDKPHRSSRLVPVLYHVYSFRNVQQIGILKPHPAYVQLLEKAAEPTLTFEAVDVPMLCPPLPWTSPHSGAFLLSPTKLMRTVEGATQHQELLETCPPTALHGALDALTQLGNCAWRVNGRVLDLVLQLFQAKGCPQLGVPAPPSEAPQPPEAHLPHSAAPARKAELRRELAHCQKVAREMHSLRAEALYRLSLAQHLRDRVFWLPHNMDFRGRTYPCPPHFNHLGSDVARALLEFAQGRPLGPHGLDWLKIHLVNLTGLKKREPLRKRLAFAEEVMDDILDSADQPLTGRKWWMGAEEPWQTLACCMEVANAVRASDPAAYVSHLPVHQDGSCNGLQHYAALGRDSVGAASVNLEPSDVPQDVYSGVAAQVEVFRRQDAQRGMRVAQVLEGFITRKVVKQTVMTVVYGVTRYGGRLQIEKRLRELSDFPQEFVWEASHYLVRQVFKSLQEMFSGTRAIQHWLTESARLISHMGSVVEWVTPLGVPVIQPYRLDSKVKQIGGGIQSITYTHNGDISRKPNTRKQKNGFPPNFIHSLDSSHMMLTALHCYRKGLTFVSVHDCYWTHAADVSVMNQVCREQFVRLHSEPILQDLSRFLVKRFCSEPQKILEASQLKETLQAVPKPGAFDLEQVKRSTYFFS

| SMILES | pIC50 |
| --- | --- |
| Cc1ccccc1-c1c[nH]c(=O)c2cc(N(C)[C@@H](C)C(=O)N3CCC[C@H](C(=O)O)C3)ccc12 (single isomer, unassigned) [Example 7] | 6.70 |
| CC(=O)N(C)CCNC(=O)[C@@H](C)Oc1ccc2c(-c3ccccc3C)c[nH]c(=O)c2c1 [Example 17, (R)-N-(2-(N-methylacetamido)ethyl)-2-((1-oxo-4-(o-tolyl)-1,2-dihydroisoquinolin-7-yl)oxy)propanamide] | 5.70 |
| C[C@@H](C(=O)N1CCC[C@H](C(=O)O)C1)N(C)c1ccc2c(-c3ccc(F)cc3Cl)c[nH]c(=O)c2c1 (single isomer, unassigned) [Example 4] | 7.00 |
| CCN1CCN(C(=O)[C@@H](C)Oc2ccc3c(-c4ccccc4C)c[nH]c(=O)c3c2)CC1 [Example 18, (R)-7-((1-(4-ethylpiperazin-1-yl)-1-oxopropan-2-yl)oxy)-4-(o-tolyl)isoquinolin-1(2H)-one] | 6.70 |
| Cc1ccccc1-c1c[nH]c(=O)c2cc(O[C@H](C)C(=O)N3CCCC(C4(C(N)=O)CC4)C3)ccc12 (single isomer, unassigned) [Example 41] | 7.40 |
| C[C@@H](Oc1ccc2c(-c3ccc(F)cc3Cl)c[nH]c(=O)c2c1)C(=O)N1CCC(C)(C(=O)O)CC1 [Example 14, (R)-1-(2-((4-(2-chloro-4-fluorophenyl)-1-oxo-1,2-dihydroisoquinolin-7-yl)oxy)propanoyl)-4-methylpiperidine-4-carboxylic acid] | 7.00 |
| COC(=O)CN(C)C(=O)[C@H](C)Oc1ccc2c(-c3ccccc3C)c[nH]c(=O)c2c1 [Example 25, methyl (S)-N-methyl-N-(2-((1-oxo-4-(o-tolyl)-1,2-dihydroisoquinolin-7-yl)oxy)propanoyl)glycinate] | < 4.00 |
| CC(=O)NCCN(C)C(=O)[C@@H](C)Oc1ccc2c(-c3ccccc3C)c[nH]c(=O)c2c1 [Example 19, (R)-N-(2-acetamidoethyl)-N-methyl-2-((1-oxo-4-(o-tolyl)-1,2-dihydroisoquinolin-7-yl)oxy)propanamide] | 5.70 |
| Cc1ccccc1-c1c[nH]c(=O)c2cc(O[C@H](C)C(=O)N3CCCC(C4(C(=O)O)CC4)C3)ccc12 (stereo partly drawn) [Example 34, 1-(1-((R)-2-((1-oxo-4-(o-tolyl)-1,2-dihydroisoquinolin-7-yl)oxy)propanoyl)piperidin-3-yl)cyclopropane-1-carboxylic acid] | 7.52 |
| Cc1ccccc1-c1c[nH]c(=O)c2cc(O[C@H](C)C(=O)N[C@H](C)C(N)=O)ccc12 [Example 21, (R)-N-((R)-1-amino-1-oxopropan-2-yl)-2-((1-oxo-4-(o-tolyl)-1,2-dihydroisoquinolin-7-yl)oxy)propanamide] | 6.70 |
| N#CCOc1ccc2c(-c3ccccc3CCO)c[nH]c(=O)c2c1 [Example 42, 2-((4-(2-(2-hydroxyethyl)phenyl)-1-oxo-1,2-dihydroisoquinolin-7-yl)oxy)acetonitrile] | 6.52 |
| Cc1ccccc1-c1c[nH]c(=O)c2cc(O[C@H](C)C(=O)N3CCN(C(N)=O)CC3)ccc12 [Example 16, (R)-4-(2-((1-oxo-4-(o-tolyl)-1,2-dihydroisoquinolin-7-yl)oxy)propanoyl)piperazine-1-carboxamide] | 7.00 |
| CCOC(=O)CN(C)c1ccc2c(-c3ccccc3C)c[nH]c(=O)c2c1 [Example 3, ethyl N-methyl-N-(1-oxo-4-(o-tolyl)-1,2-dihydroisoquinolin-7-yl)glycinate] | 6.52 |
| Cc1ccccc1-c1c[nH]c(=O)c2cc(O[C@H](C)C(=O)N3CCCC(CC(=O)O)C3)ccc12 (single isomer, unassigned) [Example 12] | 7.22 |

The remaining lines, values ahead:

| pIC50 | SMILES |
| --- | --- |
| 5.52 | Cc1ccccc1-c1c[nH]c(=O)c2cc(N(C)CC(=O)N[C@H](C)C(N)=O)ccc12 [Example 69, (R)-2-(2-(methyl(1-oxo-4-(o-tolyl)-1,2-dihydroisoquinolin-7-yl)amino)acetamido)propanamide] |
| 6.70 | Cc1ccccc1-c1c[nH]c(=O)c2cc(O[C@H](C)C(=O)N3CC[C@@H](N(C)C)C3)ccc12 [Example 64, 7-(((R)-1-((R)-3-(dimethylamino)pyrrolidin-1-yl)-1-oxopropan-2-yl)oxy)-4-(0-tolyl)isoquinolin-1(2H)-one] |
| 7.40 | Cc1ccccc1-c1c[nH]c(=O)c2cc(O[C@H](C)C(=O)N3CCCC(C(C)(C)C(N)=O)C3)ccc12 (single isomer, unassigned) [Example 46] |
| 7.10 | [2H]C([2H])([2H])c1ccccc1-c1c[nH]c(=O)c2cc(O[C@H](C)C(=O)N3CCN(C(N)=O)CC3)ccc12 [Example 74, (R)-4-(2-((4-(2-(methyl-d3)phenyl)-1-oxo-1,2-dihydroisoquinolin-7-yl)oxy)propanoyl)piperazine-1-carboxamide] |
| 7.00 | Cc1ccccc1-c1c[nH]c(=O)c2cc(O[C@H](C)C(=O)N3CC[C@H](N(C)C)C3)ccc12 [Example 65, 7-(((R)-1-((S)-3-(dimethylamino)pyrrolidin-1-yl)-1-oxopropan-2-yl)oxy)-4-(o-tolyl)isoquinolin-1(2H)-one] |
| 4.43 | CC(=O)N1CCN(C[C@H](C)Oc2ccc3c(-c4ccccc4C)c[nH]c(=O)c3c2)CC1 [Example 55, (S)-7-((1-(4-acetylpiperazin-1-yl)propan-2-yl)oxy)-4-(o-tolyl)isoquinolin-1(2H)-one] |
| 7.00 | Cc1cccc(CO)c1-c1c[nH]c(=O)c2cc(OCC(F)F)ccc12 [Example 72, 7-(2,2-difluoroethoxy)-4-(2-(hydroxymethyl)-6-methylphenyl)isoquinolin-1(2H)-one] |
| 7.22 | C[C@@H](Oc1ccc2c(-c3ccc(F)cc3Cl)c[nH]c(=O)c2c1)C(=O)N1CCCC(C(C)(C)C(=O)O)C1 (single isomer, unassigned) [Example 50] |
| 7.70 | Cc1c(F)cccc1-c1c[nH]c(=O)c2cc(O[C@H](C)C(=O)N3CCN(C(N)=O)CC3)ccc12 [Example 57, (R)-4-(2-((4-(3-fluoro-2-methylphenyl)-1-oxo-1,2-dihydroisoquinolin-7-yl)oxy)propanoyl)piperazine-1-carboxamide] |
| 6.00 | Cc1ccccc1-c1c[nH]c(=O)c2cc(O[C@H](C)C(=O)N(C)CC(=O)O)ccc12 [Example 78, (R)-N-methyl-N-(2-((1-oxo-4-(o-tolyl)-1,2-dihydroisoquinolin-7-yl)oxy)propanoyl)glycine] |
| 7.70 | CCC1(C(=O)O)CCCN(C(=O)[C@@H](C)Oc2ccc3c(-c4ccccc4C)c[nH]c(=O)c3c2)C1 (single isomer, unassigned) [Example 52] |
| < 4.00 | COCCc1ccccc1-c1c[nH]c(=O)c2cc(OCC#N)ccc12 [Example 63, 2-((4-(2-(2-methoxyethyl)phenyl)-1-oxo-1,2-dihydroisoquinolin-7-yl)oxy)acetonitrile] |
| < 4.00 | N#CCOc1ccc2c(-c3ccccc3OC(F)(F)F)c[nH]c(=O)c2c1 [Example 49, 2-((1-oxo-4-(2-(trifluoromethoxy)phenyl)-1,2-dihydroisoquinolin-7-yl)oxy)acetonitrile] |
| 7.00 | Cc1ccccc1-c1c[nH]c(=O)c2cc(O[C@H](C)C(=O)NCC(N)=O)ccc12 [Example 60, (R)-N-(2-amino-2-oxoethyl)-2-((1-oxo-4-(o-tolyl)-1,2-dihydroisoquinolin-7-yl)oxy)propanamide] |
